In patent US5389634A, “Imidazole derivatives having angiotensin II receptor antagonistic activity” (Roussel-Uclaf, priority 1990, dated 1995):
pIC50: −log10 of the molar value.

Legend:
angiotensin II receptor = target: T1, angiotensin II receptor (Rattus norvegicus, UniProt P25095); assay: Test on the angiotensin II receptor (displacement of I^125 angiotensin II on rat liver membrane preparation); format: binding; conditions: 25° C., 150 minutes, pH 7.4, read-out: IC50 (50% inhibiting concentration, displacement of specific radioactivity fixed on the receptor)
T1 construct: A fresh membrane preparation obtained from the liver of a rat was used; from tissue; host or cells: rat liver membranes
T1 sequence (P25095 1-359): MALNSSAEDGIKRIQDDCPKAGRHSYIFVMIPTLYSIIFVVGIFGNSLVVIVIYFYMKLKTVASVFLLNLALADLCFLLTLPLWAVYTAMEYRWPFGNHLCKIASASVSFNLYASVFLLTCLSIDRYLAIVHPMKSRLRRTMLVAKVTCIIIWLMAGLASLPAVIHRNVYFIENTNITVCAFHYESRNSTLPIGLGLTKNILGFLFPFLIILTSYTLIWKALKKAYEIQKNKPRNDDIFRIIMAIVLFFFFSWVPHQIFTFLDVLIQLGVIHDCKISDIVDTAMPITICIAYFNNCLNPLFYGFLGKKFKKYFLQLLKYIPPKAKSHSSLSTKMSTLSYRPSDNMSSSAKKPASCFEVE
Procedure: A fresh membrane preparation obtained from the liver of a rat was used and the tissue was ground up in a polytron in a Tris 50 mM buffer pH 7.4. The grinding was followed by 3 centrifugations at 30,000 g for 15 minutes and the deposits were taken up in between in the Tris buffer pH 7.4. The last deposits were suspended in an incubation buffer (Tris 20 mM, NaCl 135 mM, KCl 10 mM, glucose 5 mM, MgCl2 10 mM PMSF 0.3 mM, bacitracin 0.1 mM, BSA 0.2%) The aliquoted fractions of 2 ml were divided into hemolysis tubes and I^125 angiotensin II (25,000 DPM per tube) and the product to be studied were added. The product was first tested at 3×10^-5 M three times. When the tested product displaced by more than 50% the radioactivity linked specifically to the receptor, it was tested again according to a range of 7 concentrations to determine the concentration which inhibited by 50% the radioactivity linked specificaly to the receptor. In this way, the 50% inhibiting concentration was determined.
The non-specific bond was determined by addition of the product of Example 94 of European Patent No. 0,253,310, at 10^-5 M (three times). The medium was incubated at 25° C. for 150 minutes, put in a water bath at 0° C. for 5 minutes, filtered under vacuum, rinsed with Tris buffer pH 7.4 and the radioactivity was counted in the presence of scintillating Triton. The results were expressed directly as the 50% inhibiting concentration (IC50), that is as the concentration of studied product, expressed in nM, necessary to displace 50% of the specific radioactivity fixed on the receptor studied.

[1] = tested on: angiotensin II on the isolated portal vein; assay: Antagonistic activity of angiotensin II on the isolated portal vein; format: cell-based, male Wistar rats; conditions: isolated rat portal vein, angiotensin II 3.10^-8 M, compound 15 minutes before stimulation, 37° C.; read-out: IC50 (concentration which produced a 50% inhibition of the response to angiotensin)
Procedure: The portal vein of male Wistar rats weighing about 350 g (IFFA Credo France) was removed after cervical dislocation and placed rapidly in a physiological solution (see below) at ambient temperature. A ring of about 1 mm was mounted in a bath having an isolated organ containing 20 ml of the following physiological solution (composition in mM: NaCl 118.3-KCl […]-MgSO4 1.2-KH2 PO4 1.2-NaHCO3 25-glucose 11.1-CaCl2 2.5). The medium was maintained at 37° C. and oxygenated with an O2 (95%), CO2 (5%) mixture. The initial pressure imposed was 1 g, the rings were left at rest for 60 to 90 minutes. To avoid spontaneous contractions, verapamil was added to the incubation bath (1.10^-6 M).
At the end of the rest period, angiotensin II (Ciba hypertensin) 3.10^-8 M was added to the incubation bath and left in contact with the preparation for 1 minute. This operation was repeated every 30 minutes with the tissue being washed 3 or 4 times between two stimulations by angiotensin. The compound to be studied was introduced into the bath 15 minutes before a new stimulation by angiotensin. From increasing concentrations of the molecule being applied, an IC50 (concentration which produced a 50% inhibition of the response to angiotensin) can be calculated, this being expressed in nanomoles.

SMILES | pIC50 (angiotensin II receptor) | pIC50 [1]
CCCCc1nc2ccncc2n1Cc1ccc(C(=O)O)cc1 [Example 20, 4-((2-butyl-3H-imidazo(4,5-c)pyridin-3-yl)-methyl) benzoic acid] | 5.57 | 
CCCCc1nc2cc3ccccc3cc2n1Cc1ccc(C(=O)O)cc1 [Example 10, 4-((2-butyl-1H-naphth(2,3-d)imidazol-1-yl)-methyl) benzoic acid] | 5.64 | 5.48
CCCCc1nc2cc(C)c(C)cc2n1Cc1ccc(C(=O)O)cc1 [Example 15, 4-((2-butyl-5,6-dimethyl-1H-benzimidazol-1-yl)-methyl) benzoic acid] | 5.44 | 
CCCCc1nc2ccc(C(=O)O)cc2n1Cc1ccc(C(=O)O)cc1 [Example 2, 2-Butyl-1-((4-carboxyphenyl)-methyl)-1H-benzimidazol-6-carboxylic acid] | 5.63 | 5.47
CCCCc1nc2ccccc2n1Cc1ccc(C(=O)O)cc1 [Example 5, 4-((2-butyl-1H-benzimidazol-1-yl)-methyl) benzoic acid] | 5.84 | 5.44
CCCCc1nc2cscc2n1Cc1ccc(-c2ccccc2C(=O)O)cc1 [Example 34, 4'-((2-butyl-1H-thieno-(3,4-d)-imidazol-1-yl)-methyl)-(1,1'-biphenyl)-2-carboxylic acid] | 6.10 | 
CCCCc1nc2ccccc2n1Cc1ccc(C(=O)Nc2cccc3[nH]ccc23)cc1 [Example 6, 4-((2-butyl-1H-benzimidazol-1-yl)-methyl)-N-(1H-indol-4-yl) benzamide] | 5.46 | 
CCCCc1nc2cccnc2n1Cc1ccc(C(=O)O)cc1 [Example 25] |  | 6.08
CCCCc1nc2ncccc2n1Cc1ccc(-c2ccccc2C(=O)O)cc1 [Example 27, 4'-((2-butyl-1H-imidazo-(4,5-b)-pyridin-1-yl)-methyl)-(1,1'-biphenyl)-2-carboxylic acid] | 7.05 | 
